From US20260055114A1, “IMIDAZO[1,2-B]PYRIDAZINE INHIBITORS OF CYCLIN-DEPENDENT KINASES” (H. LEE MOFFITT CANCER CENTER AND RESEARCH INSTITUTE, INC., priority 2022, published 2026)

Columns and labels:
[1] = molecular target: CDK12 (Homo sapiens, UniProt Q9NYV4); assay: Inhibition of cyclin-dependent kinase 12 (% enzyme activity at 1 uM and IC50); type: biochemical; conditions: for remaining activity at 1 µM: 1 uM compound
[2] = tested on: MDA-MB-231 cell line; assay: Antiproliferative activity, MDA-MB-231 cell line (GI50); type: cell-based; conditions: Homo sapiens
[3] = tested on: CCNK; assay: CCNK degradation (DC50, Dmax); type: cell-based; conditions: for Dmax (%): CCNK degradation

Chain of CDK12 (Q9NYV4 whole entry): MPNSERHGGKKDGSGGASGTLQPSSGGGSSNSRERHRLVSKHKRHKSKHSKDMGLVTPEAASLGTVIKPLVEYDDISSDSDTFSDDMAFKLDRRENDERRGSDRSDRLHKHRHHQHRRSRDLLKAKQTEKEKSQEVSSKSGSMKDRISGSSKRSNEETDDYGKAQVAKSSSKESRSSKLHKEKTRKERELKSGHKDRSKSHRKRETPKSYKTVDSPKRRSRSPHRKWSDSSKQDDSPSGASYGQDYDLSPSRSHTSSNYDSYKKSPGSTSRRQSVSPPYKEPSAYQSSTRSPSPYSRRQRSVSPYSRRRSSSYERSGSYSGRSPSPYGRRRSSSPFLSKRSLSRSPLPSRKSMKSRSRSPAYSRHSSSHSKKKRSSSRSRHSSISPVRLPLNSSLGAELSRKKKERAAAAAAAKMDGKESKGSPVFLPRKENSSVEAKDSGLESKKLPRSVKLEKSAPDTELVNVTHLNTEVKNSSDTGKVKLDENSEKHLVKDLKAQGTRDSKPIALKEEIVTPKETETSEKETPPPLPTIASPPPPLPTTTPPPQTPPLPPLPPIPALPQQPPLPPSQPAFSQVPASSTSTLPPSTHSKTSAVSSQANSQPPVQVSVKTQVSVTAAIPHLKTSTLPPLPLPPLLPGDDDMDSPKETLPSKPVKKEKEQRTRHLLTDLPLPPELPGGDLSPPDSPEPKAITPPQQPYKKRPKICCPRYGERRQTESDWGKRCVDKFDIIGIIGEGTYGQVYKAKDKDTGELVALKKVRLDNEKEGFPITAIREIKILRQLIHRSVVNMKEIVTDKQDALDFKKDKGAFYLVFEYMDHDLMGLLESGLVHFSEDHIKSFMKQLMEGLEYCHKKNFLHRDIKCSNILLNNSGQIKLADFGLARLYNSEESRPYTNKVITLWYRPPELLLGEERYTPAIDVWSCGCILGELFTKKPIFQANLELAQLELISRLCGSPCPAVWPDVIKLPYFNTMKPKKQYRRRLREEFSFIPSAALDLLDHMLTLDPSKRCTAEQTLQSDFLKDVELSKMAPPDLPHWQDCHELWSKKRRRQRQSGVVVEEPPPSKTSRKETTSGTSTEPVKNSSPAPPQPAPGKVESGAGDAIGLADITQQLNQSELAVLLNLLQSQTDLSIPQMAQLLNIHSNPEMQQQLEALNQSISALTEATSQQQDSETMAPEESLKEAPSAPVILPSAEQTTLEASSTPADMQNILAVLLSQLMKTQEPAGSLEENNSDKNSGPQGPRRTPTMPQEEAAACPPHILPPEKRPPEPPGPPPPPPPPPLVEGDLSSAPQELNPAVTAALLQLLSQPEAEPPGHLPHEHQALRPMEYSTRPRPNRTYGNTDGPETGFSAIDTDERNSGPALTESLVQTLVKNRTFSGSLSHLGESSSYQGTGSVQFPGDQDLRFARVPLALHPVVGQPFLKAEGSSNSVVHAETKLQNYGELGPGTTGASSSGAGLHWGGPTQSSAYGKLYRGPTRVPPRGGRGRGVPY
Chain of CDK12 (O75909 whole entry partner): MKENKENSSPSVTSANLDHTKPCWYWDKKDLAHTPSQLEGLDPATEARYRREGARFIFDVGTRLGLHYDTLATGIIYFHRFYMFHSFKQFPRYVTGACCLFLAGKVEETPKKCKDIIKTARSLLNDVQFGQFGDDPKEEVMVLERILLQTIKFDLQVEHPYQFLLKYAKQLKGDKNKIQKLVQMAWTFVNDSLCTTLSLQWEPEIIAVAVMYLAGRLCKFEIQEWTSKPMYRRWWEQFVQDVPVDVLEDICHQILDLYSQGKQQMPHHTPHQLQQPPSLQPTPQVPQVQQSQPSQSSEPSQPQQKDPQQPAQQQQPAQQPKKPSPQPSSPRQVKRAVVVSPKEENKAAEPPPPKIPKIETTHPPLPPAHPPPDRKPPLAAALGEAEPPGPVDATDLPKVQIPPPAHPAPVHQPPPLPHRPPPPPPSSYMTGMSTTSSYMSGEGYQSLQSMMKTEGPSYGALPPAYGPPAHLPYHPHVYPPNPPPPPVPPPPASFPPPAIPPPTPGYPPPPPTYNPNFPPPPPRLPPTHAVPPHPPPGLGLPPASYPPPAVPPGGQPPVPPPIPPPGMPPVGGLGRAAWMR

Row | Compound | remaining activity at 1 µM [1] [%] | GI50 [2] [nM] | DC50 [3] [nM] | Dmax (%) [3] [%] | IC50 [1] [nM]
1 | Cc1cc(-c2cnc3c(NCc4nc5c(F)c(F)ccc5[nH]4)cc(N4CCN(C)CC4)nn23)cs1 [Cmpd 96, N-((4,5-difluoro-1H-benzo[d]imidazol-2-yl)methyl)-6-(4-methylpiperazin-1-yl)-3-(5-methylthiophen-3-yl) imidazo[1,2-b]pyridazin-8-amine] | 63 | 3110 | 1800 | 75 | –
2 | Cc1cc(-c2cnc3c(NCc4nc5c(F)c(F)ccc5[nH]4)cc(N4CCOCC4)nn23)cs1 [Cmpd 97, N-((4,5-difluoro-1H-benzo[d]imidazol-2-yl)methyl)-3-(5-methylthiophen-3-yl)-6-morpholinoimidazo[1,2-b]pyridazin-8-amine] | 79 | 10000 | 1300 | 75 | –
3 | Cc1noc(C)c1-c1cnc2c(NCc3nc4cc(Cl)c(Cl)cc4[nH]3)cc(N3CCN(C)CC3)nn12 [Cmpd 99, N-((5,6-dichloro-1H-benzo[d]imidazol-2-yl)methyl)-3-(3,5-dimethylisoxazol-4-yl)-6-(4-methylpiperazin-1-yl) imidazo[1,2-b]pyridazin-8-amine] | 59 | 689 | 10000 | – | 1250
4 | Cc1noc(C)c1-c1cnc2c(NCc3nc4cc(Cl)c(Cl)cc4[nH]3)cc(N3CCOCC3)nn12 [Cmpd 100, N-((5,6-dichloro-1H-benzo[d]imidazol-2-yl)methyl)-3-(3,5-dimethylisoxazol-4-yl)-6-morpholinoimidazo[1,2-b]pyridazin-8-amine] | 73 | 2030 | 10000 | – | 3000
